From paper PMC12040169 (PLOS Biology, 2025)

Test: in vitro
Details: human, hela cells, % viability

COc1ccc([C@]23CN(C)C[C@H]2CCN(C(=O)c2ccc4c(c2)OC(F)(F)O4)C3)cc1OC [CBK075110T]
viability at 28.5 h, 10 µM: 94.8%

Cn1c(=O)c2[nH]c(N3CCCNCC3)nc2n(C)c1=O [CBK270030]
viability at 28.5 h, 10 µM: 97%

CC(=O)N1CCc2sccc2C1c1ccc(NC(=O)c2cccc(F)c2)cc1 (stereo not drawn) [CBK286466]
viability at 28.5 h, 10 µM: 83.8%

CC(C)[C@H]1CN(Cc2cc(C#N)n(C)c2)C[C@@H]1NC(=O)C1CCC1 [CBK306832]
viability at 28.5 h, 10 µM: 91.6%

OCCN(Cc1cccnc1)Cc1cccn1-c1ccccc1F [CBK283019]
viability at 28.5 h, 10 µM: 92.2%

O=C1N=C(NCc2ccccc2F)OC12CCN(Cc1ccccc1)CC2 [CBK115688]
viability at 28.5 h, 10 µM: 96.2%

O=C(Cc1cccs1)N1CCC(O)(c2cccnc2)CC1 [CBK283501]
viability at 28.5 h, 10 µM: 104%

CC(C)OC(=O)[C@@H]1CCN(C(=O)CCC2NC(=O)NC2=O)[C@@H]1c1ccc(F)cc1 (stereo partly drawn) [CBK285520]
viability at 28.5 h, 10 µM: 103%

Nc1ncc2cc(C(F)(F)F)ccc2n1 [CBK100705]
viability at 28.5 h, 10 µM: 107%

O=C(CN1CCN(CCN2C(=O)c3cccc4cccc(c34)C2=O)CC1)c1ccc(F)cc1 [CBK263414B]
viability at 28.5 h, 10 µM: 94.5%

CN(Cc1nncn1C)C(=O)c1cnc2c(c1)c(C(C)(C)C)nn2C [CBK304154]
viability at 28.5 h, 10 µM: 85.4%

O=C(NC[C@H]1O[C@@H](CC(=O)N2CCN(c3ccccn3)CC2)[C@H](O)[C@@H]1O)c1ccco1 [CBK288923]
viability at 28.5 h, 10 µM: 102%

Cc1cc(=O)c(O)c(CN2CCC(C(=O)O)CC2)o1 [CBK286843]
viability at 28.5 h, 10 µM: 87.6%

COc1ccc(N(CC(=O)N2CCN(Cc3ccc4c(c3)OCO4)CC2)S(C)(=O)=O)cc1Cl [CBK265258]
viability at 28.5 h, 10 µM: 84.3%

C=CCn1c(Cc2csc(NC(=O)c3ccc([N+](=O)[O-])cc3Cl)n2)n[nH]c1=S [CBK295291]
viability at 28.5 h, 10 µM: 76.1%

CN(C)/C=N/c1ncnc2c1nc(Br)n2C1CC(O)C(CO)O1 (stereo not drawn) [CBK201277]
viability at 28.5 h, 10 µM: 93.6%

Cc1cc(=O)oc2cc(NC(=S)NNC(=O)C(C)Sc3nc4ccccc4s3)ccc12 (stereo not drawn) [CBK267056]
viability at 28.5 h, 10 µM: 102%

O=C(O)C1CCN(C(=O)Cc2c[nH]c3ccccc23)CC1 [CBK202747]
viability at 28.5 h, 10 µM: 82.7%

CN(C)CCNC(=O)c1cncc(-c2ccc(C(=O)N3CCOCC3)cc2)c1 [CBK158619]
viability at 28.5 h, 10 µM: 95.6%

CC(C)(CN)CN(Cc1ccccc1C(F)(F)F)C(=O)Nc1ccc(Cl)cc1Cl [CBK026832C]
viability at 28.5 h, 10 µM: 93.5%

CCNc1cccnc1N(CC)C1CCN(C(=O)c2cc3cc4c(cc3[nH]2)OCO4)CC1 [CBK016815]
viability at 28.5 h, 10 µM: 111%

O=c1c2ccccc2nc(COc2ccccc2)n1O [CBK288482]
viability at 28.5 h, 10 µM: 108%

Cn1c(=O)c2c(ncn2CC(=O)Nc2cccc3ccccc23)n(C)c1=O [CBK133515]
viability at 28.5 h, 10 µM: 95.8%

O=C1CCCC[C@]2(CN(Cc3ccccc3)C[C@H]2c2cccnc2)N1 [CBK283342]
viability at 28.5 h, 10 µM: 106%

COc1ccc(C)cc1-n1ccc(C(=O)NC2CCSCC2)n1 [CBK305502]
viability at 28.5 h, 10 µM: 94.6%

CN1CC(C(=O)N2CCC(c3cc4ccccc4cn3)CC2)CC1=O (stereo not drawn) [CBK284870]
viability at 28.5 h, 10 µM: 96.8%

Cc1ccc(C)c(NC(=O)Cc2nc(CN3CCNC(=O)C3)cs2)c1 [CBK305071]
viability at 28.5 h, 10 µM: 96.4%

COCCc1noc(CC2CCN(c3nc(C)cc(C#N)n3)CC2)n1 [CBK304179]
viability at 28.5 h, 10 µM: 88.5%

CC1CCCCN1C(=O)Cn1c(C2CCOCC2)cc2cccnc21 (stereo not drawn) [CBK284675]
viability at 28.5 h, 10 µM: 97.7%

Cc1cc(-c2nccnc2NCc2ccccn2)cc(C)c1O [CBK036921]
viability at 28.5 h, 10 µM: 94.2%

O=C(C1CCCCC1)N1CCCC1c1n[nH]cc1-c1ccncc1 (stereo not drawn) [CBK283434]
viability at 28.5 h, 10 µM: 87.2%

CCn1nc(-c2ccccc2)nc2c(=O)n(C)c(=O)nc1-2 [CBK000921]
viability at 28.5 h, 10 µM (bulk resorufin, single well): 92.1%

O=C(NCCc1cccs1)Nc1cc(F)ccc1F [CBK043935]
viability at 28.5 h, 10 µM: 113%

Cc1ccc(N(CC(=O)NN=C2CCCCCCCCCCC2)S(=O)(=O)c2ccccc2)cc1 [CBK262192]
viability at 28.5 h, 10 µM: 105%

COc1cccc(C2CC(=O)Nc3c2c(=O)nc(SC)n3C)c1 (stereo not drawn) [CBK307546]
viability at 28.5 h, 10 µM: 104%

C#CCNS(=O)(=O)c1cccc(C(=O)N2CCOC(CC(=O)OC)C2)c1 (stereo not drawn) [CBK306138]
viability at 28.5 h, 10 µM: 90.8%

CCNc1nc(-c2ccc(Oc3ccccc3)cc2)cn2ccnc12 [CBK066467]
viability at 28.5 h, 10 µM: 94.6%

O=C(O)COCC(=O)N[C@H]1CCN2C(=O)c3ccc(Cl)cc3NC(=O)[C@H]12 [CBK289342]
viability at 28.5 h, 10 µM: 90%

Cn1ncnc1CCNC(=O)N1CCCN(Cc2cccs2)CC1 [CBK307670]
viability at 28.5 h, 10 µM: 95.8%

CC(C)Nc1nccnc1SCc1ccc(Cl)c(Cl)c1 [CBK103657]
viability at 28.5 h, 10 µM: 89.8%

COc1cccc(CNC(=O)C2CCCN(c3nc4c(-c5ccccc5)csc4c(=O)[nH]3)C2)c1 (stereo not drawn) [CBK215463]
viability at 28.5 h, 10 µM: 99.8%

CC(C)CN1C(=S)N(Cc2ccc(-c3ccccn3)cc2)[C@H]2[C@H]3OC(=O)[C@H](C[C@H]3O)[C@H]21 [CBK288938]
viability at 28.5 h, 10 µM: 113%

O=S(=O)(c1cccc(F)c1)N1CCC(Cc2ccccc2)CC1 [CBK044828]
viability at 28.5 h, 10 µM: 102%

O/N=C1/c2ccccc2/C(=N/O)C1c1ccccc1 [CBK261122]
viability at 28.5 h, 10 µM: 75.2%

COc1ccc(CN2CCC(Cc3ccccc3-c3ccc(C)cc3C)(C(=O)O)CC2)cc1 [CBK286421]
viability at 28.5 h, 10 µM: 88.5%

O=C(Cc1ccc(Cl)c(Cl)c1)NC(c1ccccc1)c1ccccn1 (stereo not drawn) [CBK144110]
viability at 28.5 h, 10 µM: 92.8%

CC(=O)NCC(=O)N1CCCC2(C/C=C/COc3ccccc3C(=O)NCCNC2=O)C1 (stereo not drawn) [CBK291991]
viability at 28.5 h, 10 µM: 87.1%

CC1CCc2nn(CCNC(=O)C3CCCC3)c(=O)cc2C1 (stereo not drawn) [CBK284484]
viability at 28.5 h, 10 µM: 91.1%

Cc1ccccc1Cn1c(CN2CCCCC2C)nc2c1c(=O)n(C)c(=O)n2C (stereo not drawn) [CBK269199]
viability at 28.5 h, 10 µM: 91.2%

COc1ccccc1CNC(=O)CCn1ccc2ccncc21 [CBK282229]
viability at 28.5 h, 10 µM: 91.9%

Cc1cccn2cc(CCNC(=O)CN3Cc4ccccc4C3)nc12 [CBK305166]
viability at 28.5 h, 10 µM: 101%

Cc1ccc(C2CC(c3cccnc3)Nc3nnnn32)cc1 (stereo not drawn) [CBK288067]
viability at 28.5 h, 10 µM: 97.9%

CCC(=O)NCc1ccc(-c2cc(CN(C)C)n(C)n2)cc1 [CBK281668]
viability at 28.5 h, 10 µM: 103%

c1cnc(OC2CCN(CC3CCCCC3)CC2)c(OC2CCCCC2)n1 [CBK082879T]
viability at 28.5 h, 10 µM: 101%

CCCc1cc(-c2c(Cl)cccc2Cl)[nH]n1 [CBK107818]
viability at 28.5 h, 10 µM: 91.2%

CC1=C[C@@H](CNC(=O)c2ccccc2)[C@H](C(C)C)C[C@H]1CC(=O)O [CBK289213]
viability at 28.5 h, 10 µM: 102%

Cc1cc(C)nc(N2CCC(CC(=O)Nc3ccccc3CN3CCCC3)CC2)n1 [CBK286072]
viability at 28.5 h, 10 µM: 104%

COc1ccc(NC(=O)C[C@@H]2C[C@@H](C(C)C)[C@H](CC#N)C=C2C)cn1 [CBK289216]
viability at 28.5 h, 10 µM: 85.7%

CCCCCOc1ccc(NS(=O)(=O)c2cccc(C(=O)O)c2)cc1 [CBK299795]
viability at 28.5 h, 10 µM: 103%

CN(Cc1nc2c(s1)CCCC2)C(=O)COc1ccc2nncn2n1 [CBK306758]
viability at 28.5 h, 10 µM: 98.9%

N=c1sc(Cc2cc(Cl)ccc2Cl)cn1CC(=O)c1ccccc1 [CBK263584B]
viability at 28.5 h, 10 µM: 89.6%

O=C(CSc1nnnn1-c1ccccc1)Nc1nsc(-c2ccccc2)n1 [CBK267192]
viability at 28.5 h, 10 µM: 108%

N#Cc1cccc(C(=O)N2CCC3(CCN(C(=O)c4cc(F)c(F)cc4F)C3)C2)c1 (stereo not drawn) [CBK131387]
viability at 28.5 h, 10 µM: 97.2%

Cc1oc(-c2ccccc2)cc1C(=O)Nc1ccccc1N1CCCNCC1 [CBK038940T]
viability at 28.5 h, 10 µM: 83.5%

CCn1ncnc1CN1CCOc2ccc(CO)cc2C1 [CBK307245]
viability at 28.5 h, 10 µM: 80.7%

CC(C)c1cc(C(=O)NC(C)(C)CN2CCCCC2C)n(C)n1 (stereo not drawn) [CBK282644]
viability at 28.5 h, 10 µM: 96.4%

Cc1ccc(CN(CCCn2ccnc2)Cc2c[nH]cn2)s1 [CBK283136]
viability at 28.5 h, 10 µM: 95.1%

O=C(Nc1ccccc1C(=O)NCCN1CCOCC1)c1cccs1 [CBK270077]
viability at 28.5 h, 10 µM: 94.4%

CCS(=O)(=O)CCNC(=O)c1cnc(N2CCCCC2)nc1C [CBK307715]
viability at 28.5 h, 10 µM: 82.9%

CCCC(=O)Nc1sc(C)c(C)c1C(=O)Nc1ccccc1OC [CBK262455]
viability at 28.5 h, 10 µM: 104%

O=C(Nc1ccccc1-c1nc2ccccc2[nH]1)c1ccncc1 [CBK270148]
viability at 28.5 h, 10 µM: 94.5%

O=P(O)(CCc1ccccn1)CN1CCCCC1 [CBK262312]
viability at 28.5 h, 10 µM: 97.2%

Cc1nc(C)c(C(=O)Nc2ccccc2-c2ccc3c(c2)COC2(CCNCC2)O3)s1 [CBK107628]
viability at 28.5 h, 10 µM (bulk resorufin, single well): 96.8%

CC(=O)N1CCN(C(C(=O)O)c2c[nH]c3ccc(NC(=O)C(C)C)cc23)CC1 (stereo not drawn) [CBK286634]
viability at 28.5 h, 10 µM: 89.7%

COc1ccc(OC)c(N2Cc3ccc(OC)c(OC)c3C2=O)c1 [CBK113161]
viability at 28.5 h, 10 µM: 82.9%

CN1CCN(C)C(COc2nc3cc(Cl)c(Cl)cc3nc2N2CCCC2)C1 (stereo not drawn) [CBK115294]
viability at 28.5 h, 10 µM: 92%

CC(NC(=O)N1CCc2ccccc2C1)c1ccccc1 (stereo not drawn) [CBK155310]
viability at 28.5 h, 10 µM: 102%

Cc1cccc(NC(=O)NC(=O)C2CCN(CCOc3ccccc3)CC2)c1 [CBK034868]
viability at 28.5 h, 10 µM: 89.9%

Cc1ccc2nc(N3CCCC(O)C3)c(CN3CCC(F)CC3)cc2c1 (stereo not drawn) [CBK307016]
viability at 28.5 h, 10 µM: 89.1%

Nc1cc(O)nc(SCCN2CCN(c3ccc(C(F)(F)F)cc3[N+](=O)[O-])CC2)n1 [CBK265225]
viability at 28.5 h, 10 µM: 88.5%

CCN(CC)CC(C)C(O)(c1ccc(Cl)cc1)c1ccc(Cl)cc1 (stereo not drawn) [CBK012146C]
viability at 28.5 h, 10 µM: 103%

COC(=O)CCC(=O)N1CCC(Cn2cncn2)(C2CCCCC2)CC1 [CBK136810]
viability at 28.5 h, 10 µM: 90.8%

O=C1/C(=C/c2ccc(OCc3cccc4ccccc34)cc2)SC(=S)N1Cc1cccnc1 [CBK264669]
viability at 28.5 h, 10 µM: 95.6%

CCOC(=O)CSc1nc2cc(Cl)c(Cl)cc2nc1NC(C)C [CBK107173]
viability at 28.5 h, 10 µM: 97.1%

CC(=O)N1CCN(C(=O)Cn2ccc3ccccc32)CC(O)C1 (stereo not drawn) [CBK307552]
viability at 28.5 h, 10 µM: 98.1%

COc1ccc(F)c(C2NC(=O)CCC2N)c1 (stereo not drawn) [CBK282905]
viability at 28.5 h, 10 µM: 97.6%

COc1ccc(C(NC(=O)C2CCN(Cc3c[nH]c4ccccc34)CC2)c2ccccn2)cc1 (stereo not drawn) [CBK148033]
viability at 28.5 h, 10 µM: 121%
